Laboratory results from ChEMBL document CHEMBL1201862, “PubChem BioAssay data set” (2004).
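Step 1: Grow cells in 96-well plates. Step 2: Expose to compound for 48 hours at 5 concentrations. Step 3: Interpolate endpoints linearly; if unreached, use highest concentration. Abbreviation: GI50, concentration required for 50% inhibition of growth.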 The source made the active and inactive calls. Rule as the data show it: active = GI50 up to about 1.1 µM and inactive = higher.

What was measured:
Assay in all cases: NCI anticancer screen, dose series, 48 h
[1] = test system: Malme-3M
[2] = test system: SN12C
[3] = test system: HCC 2998
[4] = test system: NCI-H460
[5] = test system: M14
[6] = test system: SK-MEL-5
[7] = test system: TK-10
[8] = test system: KM12
[9] = test system: SR
[10] = test system: SK-MEL-2
[11] = test system: OVCAR-4
[12] = test system: UACC-257
[13] = test system: HOP-18
[14] = test system: OVCAR-3
[15] = test system: HT-29
[16] = test system: XF498
[17] = test system: IGROV-1
[18] = test system: SF-295
[19] = test system: MOLT-4
[20] = test system: SNB-19
[21] = test system: UO-31
[22] = test system: NCI-H23
[23] = test system: NCI-H522
[24] = test system: NCI-H226
[25] = test system: U-251
[26] = test system: HCT-15
[27] = test system: RPMI-8226
[28] = test system: A498
[29] = test system: SNB-78
[30] = test system: LXFL 529
[31] = test system: RXF 631
[32] = test system: SF-268
[33] = test system: KM-20L2
[34] = test system: OVCAR-5
[35] = test system: DMS-273
[36] = test system: UACC-62
[37] = test system: DLD-1
[38] = test system: SK-MEL-28
[39] = test system: COLO 205
[40] = test system: HOP-62
[41] = test system: HL-60
[42] = test system: OVCAR-8
[43] = test system: HOP-92
[44] = test system: ACHN
[45] = test system: M19-MEL
[46] = test system: SNB-75
[47] = test system: CCRF-CEM
[48] = test system: SK-OV-3
[49] = test system: SF-539
[50] = test system: LOX IMVI
[51] = test system: HCT-116
[52] = test system: A549
[53] = test system: CAKI-1
[54] = test system: RXF 393
[55] = test system: DMS-114
[56] = test system: SW-620
[57] = test system: K562
[58] = test system: EKVX
[59] = test system: 786-0

SMILES: CN1CCc2cc3c4cc2C1Cc1ccc(cc1)Oc1cc(ccc1O)CC1c2c(cc(O)c(c2O4)O3)CCN1C (centres undefined)
- GI50 [1]: 1.81 µM (inactive)
- GI50 [2]: 3.63 µM (inactive)
- GI50 [3]: 2.06 µM (inactive)
- GI50 [4]: 1.87 µM (inactive)
- GI50 [5]: 1.62 µM (inactive)
- GI50 [6]: 2.39 µM (inactive)
- GI50 [7]: 10.6 µM (inactive)
- GI50 [8]: 1.86 µM (inactive)
- GI50 [9]: 3.92 µM (inactive)
- GI50 [10]: 1.67 µM (inactive)
- GI50 [11]: 2.22 µM (inactive)
- GI50 [12]: 1.95 µM (inactive)
- GI50 [13]: 3.52 µM (inactive)
- GI50 [14]: 3.94 µM (inactive)
- GI50 [15]: 2.8 µM (inactive)
- GI50 [16]: 1.69 µM (inactive)
- GI50 [17]: 4.43 µM (inactive)
- GI50 [18]: 1.56 µM (inactive)
- GI50 [19]: 2.03 µM (inactive)
- GI50 [20]: 2.83 µM (inactive)
- GI50 [21]: 3.44 µM (inactive)
- GI50 [22]: 3.6 µM (inactive)
- GI50 [23]: 2.79 µM (inactive)
- GI50 [24]: 2.07 µM (inactive)
- GI50 [25]: 1.69 µM (inactive)
- GI50 [26]: 1.91 µM
- GI50 [27]: 1.64 µM (inactive)
- GI50 [28]: > 10 µM (inactive)
- GI50 [29]: 5.66 µM (inactive)
- GI50 [30]: 2.53 µM (inactive)
- GI50 [31]: 1.94 µM (inactive)
- GI50 [32]: 2.16 µM (inactive)
- GI50 [33]: 2.9 µM (inactive)
- GI50 [34]: 8.2 µM (inactive)
- GI50 [35]: 1.75 µM (inactive)
- GI50 [36]: 2.02 µM (inactive)
- GI50 [37]: 3.3 µM (inactive)
- GI50 [38]: 1.8 µM (inactive)
- GI50 [39]: 5.65 µM (inactive)
- GI50 [40]: 5.4 µM (inactive)
- GI50 [41]: 4.65 µM (inactive)
- GI50 [42]: 2.86 µM (inactive)
- GI50 [43]: 2.52 µM (inactive)
- GI50 [44]: 7.52 µM (inactive)
- GI50 [45]: 1.78 µM (inactive)
- GI50 [46]: 3.53 µM (inactive)
- GI50 [47]: 2.52 µM (inactive)
- GI50 [48]: 3.1 µM (inactive)
- GI50 [49]: 1.67 µM (inactive)
- GI50 [50]: 1.66 µM (inactive)
- GI50 [51]: 1.41 µM (inactive)
- GI50 [52]: 2.45 µM (inactive)
- GI50 [53]: 10.5 µM (inactive)
- GI50 [54]: 3.24 µM (inactive)
- GI50 [55]: 2.05 µM (inactive)
- GI50 [56]: 2.22 µM (inactive)
- GI50 [57]: 0.9 µM (active)
- GI50 [58]: 7.08 µM (inactive)
- GI50 [59]: 5.26 µM (inactive)

SMILES: CC(=O)OC1COC(n2ccc3cc(Br)c([N+](=O)[O-])cc32)C(OC(C)=O)C1OC(C)=O (centres undefined)
- GI50 [1]: 24.2 µM (inactive)
- GI50 [2]: 30.8 µM (inactive)
- GI50 [3]: 24 µM (inactive)
- GI50 [4]: 22 µM (inactive)
- GI50 [5]: 35.8 µM (inactive)
- GI50 [6]: > 10 µM (inactive)
- GI50 [7]: 27 µM (inactive)
- GI50 [8]: 34.2 µM (inactive)
- GI50 [9]: 30.4 µM (inactive)
- GI50 [10]: > 10 µM (inactive)
- GI50 [11]: > 10 µM (inactive)
- GI50 [12]: 19.2 µM (inactive)
- GI50 [13]: > 10 µM (inactive)
- GI50 [14]: 23.8 µM (inactive)
- GI50 [15]: 28.7 µM (inactive)
- GI50 [16]: 14.3 µM (inactive)
- GI50 [17]: 30.3 µM (inactive)
- GI50 [18]: 20.9 µM (inactive)
- GI50 [19]: > 10 µM (inactive)
- GI50 [20]: 30 µM (inactive)
- GI50 [21]: 12.6 µM (inactive)
- GI50 [22]: 23.3 µM (inactive)
- GI50 [23]: > 10 µM (inactive)
- GI50 [24]: 14.5 µM (inactive)
- GI50 [25]: 19.5 µM (inactive)
- GI50 [26]: 30.9 µM
- GI50 [27]: 22.5 µM (inactive)
- GI50 [28]: 19.1 µM (inactive)
- GI50 [29]: 20.8 µM (inactive)
- GI50 [30]: 20 µM (inactive)
- GI50 [31]: 23.7 µM (inactive)
- GI50 [32]: 33.4 µM (inactive)
- GI50 [33]: 31 µM (inactive)
- GI50 [35]: 29.9 µM (inactive)
- GI50 [36]: 17.6 µM (inactive)
- GI50 [37]: 44.3 µM (inactive)
- GI50 [38]: 27.4 µM (inactive)
- GI50 [39]: 23.7 µM (inactive)
- GI50 [40]: 30.5 µM (inactive)
- GI50 [42]: 22.4 µM (inactive)
- GI50 [43]: 9.44 µM (inactive)
- GI50 [44]: 27.6 µM (inactive)
- GI50 [45]: 29.4 µM (inactive)
- GI50 [46]: 23.1 µM (inactive)
- GI50 [47]: 21.1 µM (inactive)
- GI50 [48]: 31.8 µM (inactive)
- GI50 [49]: 22.2 µM (inactive)
- GI50 [50]: 20.1 µM (inactive)
- GI50 [52]: 27.8 µM (inactive)
- GI50 [53]: 33.7 µM (inactive)
- GI50 [54]: 24.7 µM (inactive)
- GI50 [55]: 27.7 µM (inactive)
- GI50 [56]: 39.5 µM (inactive)
- GI50 [57]: 29.6 µM (inactive)
- GI50 [58]: 39.4 µM (inactive)
- GI50 [59]: 33.3 µM (inactive)

SMILES: O=C1/C(=C/c2ccccc2)CCCC/C1=C\c1ccccc1
- GI50 [1]: 36.2 µM (inactive)
- GI50 [2]: > 100 µM (inactive)
- GI50 [3]: 48.5 µM (inactive)
- GI50 [4]: 51.3 µM (inactive)
- GI50 [5]: > 100 µM (inactive)
- GI50 [6]: 24.1 µM (inactive)
- GI50 [7]: > 100 µM (inactive)
- GI50 [8]: 41.2 µM (inactive)
- GI50 [9]: 12.8 µM (inactive)
- GI50 [10]: 47.9 µM (inactive)
- GI50 [11]: 75 µM (inactive)
- GI50 [12]: 41.2 µM (inactive)
- GI50 [13]: > 100 µM (inactive)
- GI50 [14]: > 100 µM (inactive)
- GI50 [15]: 16.2 µM (inactive)
- GI50 [16]: 54.5 µM (inactive)
- GI50 [17]: > 100 µM (inactive)
- GI50 [18]: 72.3 µM (inactive)
- GI50 [19]: 27.7 µM (inactive)
- GI50 [20]: > 100 µM (inactive)
- GI50 [21]: 55 µM (inactive)
- GI50 [22]: 45.1 µM (inactive)
- GI50 [24]: 39.4 µM (inactive)
- GI50 [25]: 62.2 µM (inactive)
- GI50 [26]: 32.9 µM
- GI50 [28]: > 100 µM (inactive)
- GI50 [29]: > 100 µM (inactive)
- GI50 [30]: 55.2 µM (inactive)
- GI50 [31]: 52.8 µM (inactive)
- GI50 [32]: 88.9 µM (inactive)
- GI50 [33]: 31 µM (inactive)
- GI50 [34]: 29 µM (inactive)
- GI50 [35]: 47.1 µM (inactive)
- GI50 [36]: > 100 µM (inactive)
- GI50 [37]: 34.2 µM (inactive)
- GI50 [38]: > 100 µM (inactive)
- GI50 [39]: 39.2 µM (inactive)
- GI50 [40]: > 100 µM (inactive)
- GI50 [42]: 75.3 µM (inactive)
- GI50 [43]: 40.1 µM (inactive)
- GI50 [44]: 78.7 µM (inactive)
- GI50 [45]: 48.5 µM (inactive)
- GI50 [46]: 66.7 µM (inactive)
- GI50 [48]: > 100 µM (inactive)
- GI50 [49]: > 100 µM (inactive)
- GI50 [50]: 53.7 µM (inactive)
- GI50 [51]: 40.6 µM (inactive)
- GI50 [52]: 41.7 µM (inactive)
- GI50 [53]: > 100 µM (inactive)
- GI50 [54]: 27.2 µM (inactive)
- GI50 [55]: 42.5 µM (inactive)
- GI50 [56]: 58.5 µM (inactive)
- GI50 [58]: > 100 µM (inactive)
- GI50 [59]: 65.8 µM (inactive)

SMILES: COc1ccc(C2C(C(=O)O)=C(CO)Oc3cc4c(cc32)OCO4)cc1 (centres undefined)
- GI50 [1]: > 100 µM (inactive)
- GI50 [2]: > 100 µM (inactive)
- GI50 [4]: > 100 µM (inactive)
- GI50 [5]: > 100 µM (inactive)
- GI50 [6]: > 100 µM (inactive)
- GI50 [7]: > 100 µM (inactive)
- GI50 [10]: > 100 µM (inactive)
- GI50 [11]: > 100 µM (inactive)
- GI50 [12]: > 100 µM (inactive)
- GI50 [13]: > 100 µM (inactive)
- GI50 [14]: > 100 µM (inactive)
- GI50 [15]: > 100 µM (inactive)
- GI50 [16]: > 100 µM (inactive)
- GI50 [17]: > 100 µM (inactive)
- GI50 [18]: > 100 µM (inactive)
- GI50 [19]: > 10 µM (inactive)
- GI50 [20]: > 100 µM (inactive)
- GI50 [21]: > 100 µM (inactive)
- GI50 [22]: > 100 µM (inactive)
- GI50 [25]: > 100 µM (inactive)
- GI50 [26]: > 100 µM
- GI50 [27]: > 100 µM (inactive)
- GI50 [29]: > 100 µM (inactive)
- GI50 [31]: > 100 µM (inactive)
- GI50 [33]: > 100 µM (inactive)
- GI50 [35]: > 100 µM (inactive)
- GI50 [36]: > 100 µM (inactive)
- GI50 [37]: > 100 µM (inactive)
- GI50 [38]: > 100 µM (inactive)
- GI50 [39]: > 100 µM (inactive)
- GI50 [40]: 32.5 µM (inactive)
- GI50 [42]: > 100 µM (inactive)
- GI50 [43]: > 100 µM (inactive)
- GI50 [44]: > 100 µM (inactive)
- GI50 [45]: > 100 µM (inactive)
- GI50 [46]: 27.4 µM (inactive)
- GI50 [48]: > 100 µM (inactive)
- GI50 [50]: > 100 µM (inactive)
- GI50 [51]: > 100 µM (inactive)
- GI50 [52]: > 100 µM (inactive)
- GI50 [53]: > 100 µM (inactive)
- GI50 [54]: > 100 µM (inactive)
- GI50 [55]: > 100 µM (inactive)
- GI50 [56]: > 100 µM (inactive)
- GI50 [58]: > 100 µM (inactive)
